Earlier results in US20110268669A1, “COMPOSITION AND METHOD FOR TREATING EUSTACHIAN TUBE DYSFUNCTION” (priority 2010, published 2011).

Details: taken as a chewing gum

Compound: OC[C@@H](O)[C@H](O)[C@@H](O)CO [Xylitol]
- prevention of otitis media: shown to prevent otitis media
